Results taken from PubChem BioAssay AID179 (DTP/NCI, 2004).
The source made the active and inactive calls.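 Rule for the calls: active = compounds giving half or more protection of infected cells from virus-caused growth loss, again on retest; inactive = the rest.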

Tested on: CEM cells HIV-1 protection, formazan growth assay
Assay: NCI AIDS Antiviral Assay
Details: for IC50: measured here: growth of uninfected CEM cells
In short: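 Steps: treat uninfected and HIV-1-infected human CEM cells at five drug levels; quantify growth by soluble formazan; retest any compound reaching 50% protection; classify actives from the retest.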

## O=S(=O)(O)c1ccc(O)c2ncc(Cl)cc12
  EC50: > 200 µM
  IC50: > 200 µM

## Nc1ccc(C(=O)Oc2ccccc2)c(O)c1
  EC50: > 200 µM
  IC50: > 200 µM

## CCOC(OCC)C(CC)[Se]c1ccccc1[N+](=O)[O-] (centres undefined)
  EC50: > 28.8 µM
  IC50: 1.7 µM

## O=c1c2c(-c3ccccc3)c3ccccc3nc2cnn1-c1ccccc1
  EC50: > 79.4 µM
  IC50: > 79.4 µM

## NNC1=N/C(=C\c2ccco2)C(Cl)=N1
  EC50: > 200 µM
  IC50: 38 µM

## Nc1nc(N)c2cc(Cl)ccc2n1
  EC50: > 1290 µM
  IC50: 26.9 µM

## CC(C)C1=CC23CCC4C(C)(C(=O)O)CCCC4(C)C2CC1C1C(=O)N(CCCCCCN2C(=O)C4C5CC6C7(C)CCCC(C)(C(=O)O)C7CCC6(C=C5C(C)C)C4C2=O)C(=O)C13 (centres undefined)
  EC50: > 269 µM
  IC50: 7.41 µM

## COC(=O)/C(=C/CC(N=C(c1ccccc1)c1ccccc1)C(=O)OC)N=C(c1ccccc1)c1ccccc1 (centres undefined)
  EC50: > 9.77 µM
  IC50: > 9.77 µM

## COc1cc2ccccc2oc1=O
  EC50: > 40.7 µM
  IC50: > 40.7 µM

## COC(=O)CC[N+]1=CCC(c2ccccc2)(c2ccccc2)O1
  EC50: > 115 µM
  IC50: 69.2 µM

## Cc1ccc(C2(c3ccc(Cl)cc3)c3ccccc3C3=NCCN32)cc1 (centres undefined)
  EC50: > 200 µM
  IC50: 11 µM

## N=c1c2c(C(N)=O)cn(C3OC(CO)C(O)C3O)c2ncn1O (centres undefined)
  EC50: > 0.2 µM
  IC50: 0.191 µM

## COC(=O)c1ccc(N=Cc2ccc(C=Nc3ccc(C(=O)OC)cc3)cc2)cc1
  EC50: > 12.9 µM
  IC50: > 12.9 µM

## COC(=O)C1=C(O)c2ccc(Cl)cc2S(=O)(=O)N1C
  EC50: > 200 µM
  IC50: 87.1 µM

## Cc1cccc(C)c1N=Nc1ccc(O)c(CN(C)C)c1
  EC50: > 200 µM
  IC50: 39.8 µM

## N#CN=CN1CCN(c2ccccn2)CC1
  EC50: > 537 µM
  IC50: > 537 µM

## CN(C(=O)C1=CCC2(CC1)OCCO2)c1ccccc1I
  EC50: > 200 µM
  IC50: > 200 µM

## O=C(COC(=O)c1cccc2c(=O)c3ccccc3[nH]c12)Nc1ccc(S(=O)(=O)Nc2ncccn2)cc1
  outcome: inactive

## COc1ccccc1NC(=O)C(/C=N/C(=S)NNC(C)=O)=C(/C)O
  EC50: > 200 µM
  IC50: > 200 µM

## CCOC(=O)c1c(N2CCOCC2)[nH]c(=O)c(C(c2ccc(N(C)C)cc2)c2c(O)c(C(=O)OCC)c(N3CCOCC3)[nH]c2=O)c1O
  EC50: > 200 µM
  IC50: > 200 µM

## COC(=O)C1=C(C(=O)OC)C2(C(=O)OC)OC1(OC)C(C1(C(=O)OC)C(C(=O)OC)=C1C(=O)OC)=C2C(=O)OC (centres undefined)
  outcome: inactive

## COC(=O)C1C2CC3C(C2=O)C31 (centres undefined)
  EC50: > 200 µM
  IC50: > 200 µM

## CCC(=O)SC1CC2=CC(=O)CCC2(C)C2CCC3(C)C(O)CCC3C12 (centres undefined)
  EC50: > 200 µM
  IC50: > 200 µM

## CCOP(=O)(CC(=O)C1CC1)OCC
  outcome: inactive

## CNc1nnc(CCCCCCCCc2nnc(NC)o2)o1
  EC50: > 200 µM
  IC50: 11.5 µM

## O=C1CC(c2ccccc2)Sc2ccccc2N1 (centres undefined)
  EC50: > 200 µM
  IC50: 89.1 µM

## CO[C@H]1C[C@H](n2cc(C)c(=O)[nH]c2=O)O[C@@H]1CO
  EC50: > 200 µM
  IC50: > 200 µM

## CC(C)=CC1CC(C)C2(CCC3(C)CC4C5/C(=C\CC32)C(=O)OC5CC4(C)O)O1 (centres undefined)
  EC50: > 2 µM
  IC50: 0.398 µM

## N#CCCN(CCCN(C(=O)Nc1ccc(NC(=O)N(CCCN(CCC#N)C(N)=O)c2ccccc2)cc1)c1ccccc1)C(N)=O
  EC50: > 200 µM
  IC50: > 200 µM

## OC1OC(c2ccc[nH]2)C(F)(F)C(F)(F)C1(F)F (centres undefined)
  EC50: > 200 µM
  IC50: 67.6 µM

## O=C1C=C(c2c(-c3ccccc3)[nH]c3ccccc23)C(=O)N1c1ccccc1
  EC50: > 200 µM
  IC50: 15.5 µM

## CC1CC(=O)C(CC(=O)O)C1C(C(=O)C(=O)Nc1c(C#N)cccc1[N+](=O)[O-])[N+](=O)[O-] (centres undefined)
  outcome: inactive

## CC(C)CCCC(C)[C@H]1CC[C@H]2[C@@H]3CC[C@H]4C[C@@H](CCC=C(c5cc(Cl)c(OCc6ccc([N+](=O)[O-])cc6)c(C(=O)O)c5)c5cc(Cl)c(OCc6ccc([N+](=O)[O-])cc6)c(C(=O)O)c5)CC[C@]4(C)[C@H]3CC[C@]12C (some centres undefined)
  EC50: > 100 µM
  IC50: > 100 µM

## CCC1(O)C(=O)OCc2c1cc(-c1ccc(Cl)cc1)nc2OC (centres undefined)
  EC50: > 200 µM
  IC50: > 200 µM

## CCCC(=O)NC(Nc1ccc(S(=O)(=O)Nc2ccc(OC)nn2)cc1)(C(F)(F)F)C(F)(F)F
  EC50: > 200 µM
  IC50: > 200 µM

## CCOC(=O)/C=C/c1nc(C#N)c(N)o1
  EC50: > 200 µM
  IC50: 102 µM

## Nc1nc(N)c(CCCCc2ccccc2)c(C=O)n1
  outcome: inactive

## COc1ccc2c(O)c(S(=O)(=O)c3ccc(C)cc3)c(=O)oc2c1
  EC50: > 200 µM
  IC50: 132 µM

## C/C(N)=C/C(=O)c1[nH]c(C(=O)O)cc1C1CCN(Cc2ccccc2)C1=O (centres undefined)
  EC50: > 200 µM
  IC50: 31.6 µM

## c1ccc(N2N=C(c3ccco3)CC2c2ccco2)cc1 (centres undefined)
  EC50: > 25.7 µM
  IC50: > 25.7 µM

## O=[n+]1c2c(n([O-])c3ccccc31)-c1cccc3cccc-2c13
  EC50: > 200 µM
  IC50: 129 µM

## O=C(O)/N=N\C(=O)O
  EC50: > 151 µM
  IC50: > 151 µM
